Experimental data from PMC9600515, “Dual Regulatory Role Exerted by Cyclic Dimeric GMP To Control FsnR-Mediated Bacterial Swimming” (mBio, 2022).

Experiments:
[1] = target: T1, FsnR (Stenotrophomonas maltophilia, UniProt B2FQU0); assay: microscale thermophoresis (MST); format: binding; settings: PBS buffer; labelled protein
T1 construct: gene Smlt2299; full length, recombinant from E. coli BL21(DE3), C-terminal His6 or GST tag (GST cleaved on column); Red NHS labelled for MST

[2] = target: T2, RavS (Stenotrophomonas maltophilia, UniProt B2FQW5); assay: microscale thermophoresis (MST); format: binding; settings: PBS buffer; 20 nM fluorescein-labeled RavS
T2 construct: gene Smlt2324; recombinant from E. coli BL21(DE3), C-terminal His6 or GST tag (GST cleaved); phosphorylated His503; labelled for MST
T2 sequence (B2FQW5 entry or part of it): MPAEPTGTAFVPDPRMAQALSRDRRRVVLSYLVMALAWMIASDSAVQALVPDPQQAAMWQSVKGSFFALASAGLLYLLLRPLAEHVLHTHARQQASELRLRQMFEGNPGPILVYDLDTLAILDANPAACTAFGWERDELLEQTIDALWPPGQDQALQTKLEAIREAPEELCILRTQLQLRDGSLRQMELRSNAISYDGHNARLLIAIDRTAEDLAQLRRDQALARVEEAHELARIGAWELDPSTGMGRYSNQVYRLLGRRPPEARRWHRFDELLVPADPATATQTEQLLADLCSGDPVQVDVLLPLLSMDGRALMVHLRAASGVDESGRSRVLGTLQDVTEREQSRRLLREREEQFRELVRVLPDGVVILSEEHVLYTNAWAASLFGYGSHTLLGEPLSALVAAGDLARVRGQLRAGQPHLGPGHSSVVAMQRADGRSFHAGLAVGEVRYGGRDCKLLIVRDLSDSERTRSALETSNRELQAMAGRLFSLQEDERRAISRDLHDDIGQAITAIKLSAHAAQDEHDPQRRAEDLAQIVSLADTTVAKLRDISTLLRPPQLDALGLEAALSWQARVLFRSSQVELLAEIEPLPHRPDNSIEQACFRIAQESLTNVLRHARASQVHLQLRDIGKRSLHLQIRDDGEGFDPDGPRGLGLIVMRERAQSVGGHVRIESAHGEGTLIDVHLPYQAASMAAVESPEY

T1 sequence (B2FQU0 entry or part of it): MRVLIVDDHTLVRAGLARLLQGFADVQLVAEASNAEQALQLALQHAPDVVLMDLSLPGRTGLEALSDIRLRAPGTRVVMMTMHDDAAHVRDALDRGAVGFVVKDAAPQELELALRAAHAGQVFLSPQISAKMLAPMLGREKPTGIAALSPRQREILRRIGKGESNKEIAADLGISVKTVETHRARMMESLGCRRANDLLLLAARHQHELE

Compound: Nc1nc2c(ncn2[C@@H]2O[C@@H]3CO[P@](=O)(O)O[C@H]4[C@@H](O)[C@H](n5cnc6c(=O)[nH]c(N)nc65)O[C@@H]4CO[P@](=O)(O)O[C@H]3[C@H]2O)c(=O)[nH]1 [c-di-GMP]
- Kd [1]: 3.43 ± 1.36 µM
- Kd [2]: 1.48 ± 0.36 µM
